In US20250009696A1, “METHODS OF CANCER TREATMENT VIA REGULATED FERROPTOSIS” (Memorial Sloan Kettering Cancer Center, priority 2017, published 2025):

Key:
HT1080 cells = experiment: Cell rupture in response to other inducers of ferroptosis with osmoprotectants; type: cell-based; details: necrotic cell death induced by hydrogen peroxide, FIG. 1F
From the text: (§1) The use of osmo-protectants (FIG. 1B) of increasing sizes can indicate the presence of pores in the membrane that would be required for cell rupture.

[1] = tested on: cells treated with FAC and BSO; experiment: Cell swelling and cell lysis (LDH release) in FAC and BSO-induced ferroptosis; type: cell-based; details: for cell lysis / cell rupture (release of lactate dehydrogenase, LDH): 48 hours of treatment with FAC and BSO (400 μM), osmoprotectant 30 mM
Procedure: The effect on cell lysis is shown by reduced release of lactate dehydrogenase (LDH), a measure of necrosis.
To investigate if the ferroptotic rupture of cells might be an event that is regulated by a pore, experiments were performed with osmo-protectants in the cell culture medium. Osmo-protectants are large osmolytes that when added to sufficient concentrations outside of cells (30 mM), buffer potential ion imbalances caused by pore formation that would otherwise lead to membrane rupture. The loss of ion and small molecule balances across the plasma membrane due to the opening of a pore would lead to hypo-osmotic stress due to the large molecules and organelles that cannot cross the intact membrane.
as §1

[2] = Computational analysis of cell death spreading (time-lapse microscopy, random trials); type: cell-based; details: experimentally-induced apoptosis; cell line not stated
Procedure: Nuclei are circled and color-coded to represent the relative timing of cell death, determined by time-lapse microscopy. The relative positioning of cell deaths occurring in successive frames of a time-lapse movie are calculated by measuring the distance between newly occurring deaths and their nearest neighbor of any previous deaths, for example death 2 to death 1, or distance a. The mean distance of all deaths in a movie is calculated as distances (a+b+c+ . . . +n)/n.
It was observed that ferroptosis involves the spreading of cell death between adjacent cells in cell culture in wave-like or synchronous patterns. […] To study cell death spreading, a computational analysis was designed that allows for quantification of the random or non-random nature of observed patterns of cell death in a population. As shown in FIGS. 2A-2D, this analysis utilizes time-lapse microscopic imaging of cell death, for cells cultured in the presence of Sytox green or Sytox orange dyes (or propidium iodide), which enter the nucleus of necrotic cells and emit green or red fluorescence (FIG. 2A). […] In addition to the actual data set calculated for each field of view, randomized trials are then also performed 1000 times for each microscopic field, to generate a random set of possible mean distances that account for the particular arrangements of cells in each field (FIG. 2B). […]

[3] = tested on: cells treated with FAC and BSO; experiment: Spreading of ferroptosis, cell rounding and calcium signal with inhibitors or osmoprotectants; type: cell-based
Procedure: FIG. 3A depicts images that show cell colony prior to (left) and 12 hours after (right) treatment with liproxstatin-1. Note cell death involving wave-like spreading that was induced by FAC and BSO, and started prior to liproxstatin-1 addition, was inhibited, as cells that were alive (bottom right half of colony) stayed alive for 12 hours.
Right images show computational quantifications of the spreading of cell rounding (top), which remains significant in the presence of PEG1450 (***P=0.004) (see histogram, bottom). Cells are pseudocolored in top image to represent the relative timing of cell rounding.
Relative times are shown as minutes (min).
It was observed that ferroptosis involves a pore-forming activity and, also, a spreading activity. […] As cell rounding or swelling may be associated with calcium influx into cells, cells expressing the genetically-encoded calcium sensor GCaMP, which emits GFP fluorescence upon calcium exposure, were treated with FAC and BSO to induce ferroptosis in the presence of PEG3350.

[4] = tested on: LNCAP prostate cancer cells; experiment: Western blot of PSMA and AR expression after enzalutamide exposure in vitro; type: cell-based; details: 10 μM continuously for 15 days
From the text: At the conclusion of exposure, cells were collected and the expression levels of PSMA and AR were examined via Western blot.

[5] = tested on: LNCAP-AR prostate cancer cells; experiment: as above; type: cell-based; details: 10 μM over 15 days
[6] = tested on: PC-3 prostate cancer cells; experiment: as above; type: cell-based; details: 10 μM for 15 days
LNCAP xenografts = experiment: PSMA expression in xenografts after daily enzalutamide; type: in vivo, mice; details: 10 mg/kg/day, oral gavage

Question: With OO [hydrogen peroxide] as the compound, how does the “regulation of necrotic cell death by PEG1450 or PEG3350” value (HT1080 cells) read?
Answer: The value was “did not involve similar regulation”.

Question: Which ferroptotic cell rupture ([1]; treatment with inhibitor of MLKL) does the source give for COc1nccnc1NS(=O)(=O)c1ccc(NC(=O)/C=C/c2ccc([N+](=O)[O-])s2)cc1 [necrosulfonamide] here?
Answer: Its ferroptotic cell rupture is “did not affect ferroptotic cell rupture”.

Question: Which “cell lysis / cell rupture (release of lactate dehydrogenase, LDH)” value [1] does the source give for OC[C@H]1O[C@H](OC[C@H]2O[C@H](O[C@]3(CO)O[C@H](CO)[C@@H](O)[C@@H]3O)[C@H](O)[C@@H](O)[C@@H]2O)[C@H](O)[C@@H](O)[C@H]1O [raffinose] here?
Answer: The value was “did not”.

Question: Which “cell lysis / cell rupture (release of lactate dehydrogenase, LDH)” value [1] does the source give for OC[C@H]1O[C@@](CO)(O[C@H]2O[C@H](CO)[C@@H](O)[C@H](O)[C@H]2O)[C@@H](O)[C@@H]1O [sucrose] here?
Answer: Its value is “did not”.

Question: With C[C@@H]1C[C@@H]([C@H](O)CC2CC(=O)NC(=O)C2)C(=O)[C@@H](C)C1 [cyclohexamide] as the compound, how does the “observed mean distance between cell deaths versus random trials” value [2] read?
Answer: Its value is “falls within the random trials”.

Question: Which “spreading of cell rounding / morphological changes” value ([3]; FAC and BSO (400 μM) in the presence of the named agent) does the source give for Clc1cccc(CN=C2Nc3ccccc3NC23CCNCC3)c1 [liproxstatin-1] here?
Answer: The value was “blocked”.

Question: And the “wave-like spreading of ferroptosis” value ([3]; FAC and BSO, agent added after initiation of ferroptosis)?
Answer: Its value is “disrupted wave-like spreading”.

Question: With CNC(=O)c1ccc(N2C(=S)N(c3ccc(C#N)c(C(F)(F)F)c3)C(=O)C2(C)C)cc1F [enzalutamide] as the compound, how does the “AR expression (Western blot)” value [4] read?
Answer: The value was “transient increase in AR expression is also observed from Day 7 to Day 10”.

Question: What about the “PSMA expression (Western blot)” value [4] of the same compound?
Answer: Its value is “increase in PSMA expression occurs on, or around, Day 7 of exposure”.

Question: What about the “AR expression (Western blot)” value [5] of the same compound?
Answer: The value was “clear increase in AR expression is observed from Day 3 onward”.

Question: And the “PSMA expression (Western blot)” value [5]?
Answer: Its value is “time-dependent increase in PSMA expression”.

Question: What about the “AR expression (Western blot)” value [6] of the same compound?
Answer: The value was “negative for AR across all tested time points”.

Question: And the “PSMA expression (Western blot)” value [6]?
Answer: Its value is “lack of PSMA expression at all time points”.

Question: And the “PSMA expression in LNCAP xenografts” value (LNCAP xenografts)?
Answer: Its value is “increase in PSMA expression at Day 5”.

Question: What about the “PSMA expression in tumor sections (immunofluorescence staining)” value (LNCAP xenografts) of the same compound?
Answer: Its value is “increase in PSMA expression at Day 5”.
